Results on 13 compounds are retold here after patent publication US4348410A, “Cyclohexane carboxylic acid derivatives” (Nippon Chemiphar Co., Ltd., priority 1979, dated 1982).

Molecules are shown by their SMILES. Structures can show the parent of a compound that is named as a salt.

The target in one assay is urokinase (Homo sapiens, UniProt P00749). The experiment in a line: Inhibitory effects on urokinase (hydrolysis of N-acetylglycyl lysine methyl ester). Format: biochemical. To be noted: for inhibition at 100 µM: 0.1 mM, read-out: inhibited hydrolytic activity by urokinase; for Inhibition (%) Urokinase: 37° C., 10 minutes, concentration not given. As for the experimental part:
The compounds of the formula (I) have excellent inhibitory effects on protease. The inhibitory effects were determined by the following methods: Inhibitory effects of the compounds on urokinase were determined according to the method described by A. J. Joeson et al (Throm. […]. 21, 259-272 (1969)). In particular, inhibitory effects of the compounds on hydrolysis of N-acetylglycyl lysine methyl ester by urokinase were determined (incubated at 37° C. for 10 minutes).

A further assay deals with thrombin (Bos taurus, UniProt P00735). The experiment in a line: Inhibitory effects on thrombin (hydrolysis of p-tosylarginine methyl ester). Format: biochemical. To be noted: for Inhibition (%) Thrombin: 37° C., 10 minutes, concentration not given. As for the experimental part:
The compounds of the formula (I) have excellent inhibitory effects on protease. The inhibitory effects were determined by the following methods:
Inhibitory effects of the compounds on thrombin were determined according to the method described by M. Muramatsu et al (The Journal of Biochemistry, Volume 65 (1), 17 (1969)). In particular, inhibitory effects of the compounds on hydrolysis of p-tosylarginine methyl ester by thrombin were examined (incubated at 37° C. for 10 minutes).

The next assay concerns the target T1, trypsin (Bos taurus, UniProt P00760).
T1 sequence (P00760 24-246): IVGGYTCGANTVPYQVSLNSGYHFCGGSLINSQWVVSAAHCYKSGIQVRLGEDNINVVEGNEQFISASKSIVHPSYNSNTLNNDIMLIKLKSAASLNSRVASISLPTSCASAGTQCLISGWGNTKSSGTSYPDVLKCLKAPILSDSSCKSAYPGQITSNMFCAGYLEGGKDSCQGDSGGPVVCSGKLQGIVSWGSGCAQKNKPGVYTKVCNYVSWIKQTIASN
The experiment in a line: Inhibitory effects on trypsin (hydrolysis of p-tosylarginine methyl ester). Format: biochemical. The conditions noted are these: for Inhibition (%) Trypsin: 37° C., 10 minutes, concentration not given. As for the experimental part:
In particular, inhibitory effects of the compounds on hydrolysis of p-tosylarginine methyl ester by trypsin were examined (incubated at 37° C. for 10 minutes).

In a further assay the target is chymotrypsin (Bos taurus, UniProt P00766). The experiment in a line: Inhibitory effects on chymotrypsin (hydrolysis of N-acetyl-L-tyrosine ethyl ester). Format: biochemical. To be noted: for Inhibition (%) Chymotrypsin: 37° C., 10 minutes, concentration not given. As for the experimental part: The compounds of the formula (I) have excellent inhibitory effects on protease. The inhibitory effects were determined by the following methods: Inhibitory effects on the compounds of chymotrypsin were determined according to the method described by M. […] In particular, inhibitory effects of the compounds on hydrolysis of N-acetyl-L-tyrosine ethyl ester by chymotrypsin were examined (incubated at 37° C. for 10 minutes).

A further assay concerns acetic acid ulcers. The experiment in a line: Acetic acid ulcers. To be noted: for Ulcer Grade 1 (number of rats): ulcer area 0-10 mm^2; for Ulcer Grade 2 (number of rats): ulcer area 11-20 mm^2; for Ulcer Grade 3 (number of rats): ulcer area 21-30 mm^2; for Ulcer Grade 4 (number of rats): ulcer area 31-40 mm^2; for Ulcer Grade 5 (number of rats): ulcer area >40 mm^2. Format: in vivo, Male Sprague-Dawley strain rats. As for the experimental part:
Male Sprague-Dawley strain rats, weighing about 200 g were used. Under ether anesthesia 10% acetic acid solution (0.05 ml) was injected carefully between the serous membrane and the muscle near the pylorus, and the abdomen was closed. Thereafter, the animals were maintained under conditions and administered 1 ml/100 g of each test drug dissolved or suspended in 0.5% carboxymethylcellulose solution p.o. daily×10 starting from the next day of the operation. On the 11th day, the rats were sacrificed under ether anesthesia, and the stomachs were removed. The area of the ulcer was measured and graded into 5 degrees as an ulcer index according to the following method: […]

The test system of the next assay is gastric secretion. The experiment in a line: Influence to the gastric secretion (pylorus ligation). To be noted: 12.5 mg/kg i.p. Format: in vivo, Male Sprague-Dawley strain rats. As for the experimental part:
Male Sprague-Dawley strain rats, weighing 160-180 g were deprived of food but allowed free access to water for 20 hours prior to experiment. […] The test drug was given intraperitoneally immediately after pylorus ligation. The rats were sacrificed 3, 6 and 12 hours later and the stomachs removed. The gastric juice was collected and analyzed for volume. Then the gastric juice was centrifuged at 1300 g for 10 minutes at room temperature to give the supernatant. The total acidity and peptic activity of the supernatant were determined. Total acidity was determined by titrating with 0.01 N NaOH. […] Total acidity is shown as the titration volume (ml) and peptic activity is shown as the corresponding weight (mg) to crystal pepsin.

In a further assay the test system is Shay ulcers. Briefly: Shay ulcers (pylorus ligation). Format: in vivo, Male Sprague-Dawley strain rats. The conditions noted are these: 12.5 mg/kg i.p. As for the experimental part:
The rats were sacrificed 18 hours later by an overdose of ether and the stomach removed. The stomach was incised along the greater curvature and the surface area of each lesion in forestomach was measured by the naked eye. […] 4=many ulcers of marked size 5=perforated ulcer The test drugs were given intraperitoneally, immediately after pylorus ligation.

Take `N=C(N)NC[C@H]1CC[C@H](C(=O)Oc2ccccc2C=O)CC1` [Example 19]: the inhibition at 100 µM at urokinase came to 56%.
On the same count and under the same terms, the result for `COc1ccc(OC(=O)[C@H]2CC[C@H](CNC(=N)N)CC2)cc1` [Example 21] reads 52%.
Regarding `CCOc1ccccc1OC(=O)[C@H]1CC[C@H](CNC(=N)N)CC1` [Compound 4], the “Inhibition (%) Thrombin” value on thrombin is 35%. Also, at trypsin, the “Inhibition (%) Trypsin” value came to 22%. Besides, the “Inhibition (%) Urokinase” value on urokinase stood at 84%. For the same compound, the “Inhibition (%) Chymotrypsin” value at chymotrypsin was determined as 28%.
`Cc1c(C)c2c(c(C)c1OC(=O)[C@H]1CC[C@H](CNC(=N)N)CC1)CCC(C)(CCCC(C)CCCC(C)CCCC(C)C)O2` (stereo partly shown) [Example 1]: the inhibition at 100 µM at thrombin (0.1 mM, read-out: inhibited hydrolytic activity by thrombin) is roughly 50%; at trypsin (0.1 mM, read-out: inhibited hydrolytic activity by trypsin), roughly 50%.
Regarding `COc1ccccc1OC(=O)[C@H]1CC[C@H](CNC(=N)N)CC1` [Example 20], the inhibition at 100 µM on urokinase worked out at 50%.
Regarding `CCOC(=O)c1ccc(OC(=O)[C@H]2CC[C@H](CNC(=N)N)CC2)cc1` [Compound 6], at thrombin, the “Inhibition (%) Thrombin” value came out at 39%. At trypsin, the “Inhibition (%) Trypsin” value is 25%. For the same compound, the “Inhibition (%) Urokinase” value on urokinase came to 50%. At chymotrypsin, the “Inhibition (%) Chymotrypsin” value worked out at 70%.
For `Cl.N=C(N)NC[C@H]1CC[C@H](C(=O)Oc2cccnc2)CC1` [Compound 7, 3pyridyl trans4-guanidinomethylcyclohexanecarboxylate hydrochloride], in that order: 32%, 23%, 67% and 70%.
On to `COc1cc(C=O)ccc1OC(=O)[C@H]1CC[C@H](CNC(=N)N)CC1` [Compound 2], for which the “Inhibition (%) Thrombin” value at thrombin is listed as 51%. The “Inhibition (%) Trypsin” value at trypsin is reported as 61%. Moreover, the “Inhibition (%) Urokinase” value on urokinase was found to be 72%. Moreover, in the assay with acetic acid ulcers (125 mg/kg p.o. daily×10), the “Ulcer Grade 1 (number of rats)” value is listed as 9, the “Ulcer Grade 2 (number of rats)” value was 1, the “Ulcer Grade 3 (number of rats)” value is on record as 2 and the “Ulcer Grade 4 (number of rats)” value is reported as 2. The “Ulcer Grade 5 (number of rats)” value with acetic acid ulcers (125 mg/kg p.o. daily×10) turned out to be 1. Moreover, in the assay on acetic acid ulcers (250 mg/kg p.o. daily×10), the “Ulcer Grade 1 (number of rats)” value came to 14, the “Ulcer Grade 2 (number of rats)” value was 0, the “Ulcer Grade 3 (number of rats)” value amounted to 3 and the “Ulcer Grade 4 (number of rats)” value was found to be 1. In the assay on acetic acid ulcers (250 mg/kg p.o. daily×10), the “Ulcer Grade 5 (number of rats)” value amounted to 0. Further, in the assay with acetic acid ulcers (500 mg/kg p.o. daily×10), the “Ulcer Grade 1 (number of rats)” value amounted to 12, the “Ulcer Grade 2 (number of rats)” value is 3, the “Ulcer Grade 3 (number of rats)” value came out at 2 and the “Ulcer Grade 4 (number of rats)” value is on record as 0. For the same compound, in the assay with acetic acid ulcers (500 mg/kg p.o. daily×10), the “Ulcer Grade 5 (number of rats)” value is recorded as 1. The “Inhibition (%) Chymotrypsin” value at chymotrypsin is 100%.
For the compound `N=C(N)NC[C@H]1CC[C@H](C(=O)Oc2ccccc2C(=O)Oc2ccccc2)CC1` [Compound 5], the “Inhibition (%) Thrombin” value on thrombin is 34%. Further, the “Inhibition (%) Trypsin” value at trypsin worked out at 38%. For the same compound, the “Inhibition (%) Urokinase” value at urokinase amounted to 35%. The “Inhibition (%) Chymotrypsin” value at chymotrypsin amounted to 90%.
As to `CCOC(=O)c1ccccc1OC(=O)[C@H]1CC[C@H](CNC(=N)N)CC1` [Compound 9], the “Inhibition (%) Thrombin” value at thrombin is 29%. For the same compound, at trypsin, the “Inhibition (%) Trypsin” value amounted to 28%. Besides, the “Inhibition (%) Urokinase” value on urokinase was 50%. In the assay with acetic acid ulcers (125 mg/kg p.o. daily×10), the “Ulcer Grade 1 (number of rats)” value was 11, the “Ulcer Grade 2 (number of rats)” value is 3, the “Ulcer Grade 3 (number of rats)” value came to 1 and the “Ulcer Grade 4 (number of rats)” value is on record as 1. Moreover, the “Ulcer Grade 5 (number of rats)” value in the assay on acetic acid ulcers (125 mg/kg p.o. daily×10) is on record as 1. Also, in the assay on acetic acid ulcers (250 mg/kg p.o. daily×10), the “Ulcer Grade 1 (number of rats)” value is given as 11, the “Ulcer Grade 2 (number of rats)” value is listed as 2, the “Ulcer Grade 3 (number of rats)” value worked out at 1 and the “Ulcer Grade 4 (number of rats)” value turned out to be 0. Besides, in the assay on acetic acid ulcers (250 mg/kg p.o. daily×10), the “Ulcer Grade 5 (number of rats)” value came to 0. Also, in the assay with acetic acid ulcers (500 mg/kg p.o. daily×10), the “Ulcer Grade 1 (number of rats)” value worked out at 12, the “Ulcer Grade 2 (number of rats)” value was found to be 2, the “Ulcer Grade 3 (number of rats)” value was 1 and the “Ulcer Grade 4 (number of rats)” value was 0. Moreover, the “Ulcer Grade 5 (number of rats)” value in the assay on acetic acid ulcers (500 mg/kg p.o. daily×10) came out at 0. Further, the “Inhibition (%) Chymotrypsin” value on chymotrypsin came to 60%.
In the case of `N=C(N)NC[C@H]1CC[C@H](C(=O)Oc2ccccc2C(=O)O)CC1` [Compound 10], in the assay on acetic acid ulcers (300 mg/kg p.o. daily×10), the “Ulcer Grade 1 (number of rats)” value is 4, the “Ulcer Grade 2 (number of rats)” value is reported as 2, the “Ulcer Grade 3 (number of rats)” value came to 1 and the “Ulcer Grade 4 (number of rats)” value is given as 0. Besides, the “Ulcer Grade 5 (number of rats)” value in the assay on acetic acid ulcers (300 mg/kg p.o. daily×10) was 2. For the same compound, in the assay with acetic acid ulcers (500 mg/kg p.o. daily×10), the “Ulcer Grade 1 (number of rats)” value came to 4, the “Ulcer Grade 2 (number of rats)” value turned out to be 3, the “Ulcer Grade 3 (number of rats)” value stood at 1 and the “Ulcer Grade 4 (number of rats)” value worked out at 0. The “Ulcer Grade 5 (number of rats)” value in the assay with acetic acid ulcers (500 mg/kg p.o. daily×10) is reported as 0.
For the compound `CN1[C@@H]2CC[C@H]1C[C@@H](OC(=O)C(CO)c1ccccc1)C2` (stereo partly shown) [Compound B, atropine sulfate, reference compound], the “Titratable Pepsin Output” value with gastric secretion (3 hours) was 3.3 ± 0.9 mg; with gastric secretion (6 hours), 9.7 ± 1.6 mg; in the assay with gastric secretion (12 hours), 34.2 ± 1.4 mg. The entries for the “Titratable Pepsin Output % change” value with gastric secretion (3 hours), in the assay with gastric secretion (6 hours) and in the assay on gastric secretion (12 hours) were 43.1%, 55.3% and 41.0%, respectively. Besides, the “Ulcer Grade 0 (number of rats)” value in the assay on Shay ulcers (0=no lesion) worked out at 2. The “Ulcer Grade 1 (number of rats)” value with Shay ulcers (1=hemorrhagic suffusion) amounted to 1. Moreover, the “Ulcer Grade 2 (number of rats)” value in the assay with Shay ulcers (2=1-5 small ulcers (<3 mm)) came out at 0. The “Ulcer Grade 3 (number of rats)” value in the assay with Shay ulcers (3=many small ulcers (more than 5) or 1 ulcer of marked size) was found to be 1. Besides, the “Ulcer Grade 4 (number of rats)” value with Shay ulcers (4=many ulcers of marked size) is given as 3. Moreover, the “Ulcer Grade 5 (number of rats)” value with Shay ulcers (5=perforated ulcer) was found to be 3.
Consider `CC(=O)c1ccccc1OC(=O)[C@H]1CC[C@H](CNC(=N)N)CC1` [Example 23, 2'-Acetylphenyl trans-4-guanidomethycylohexanecarboxylate hydrochloride], for which the inhibition at 50 µM at chymotrypsin (0.05 mM, read-out: inhibited hydrolytic activity by chymotrypsin) was determined as 50%.
